Entries after “also recorded” stand apart in the source; their conditions may differ.
Experiments:
HepG2 cells = system: HepG2 cells; design: method as in PMID 1312935; conditions: 1 mM final concentration; cited from earlier work
cell surface sialylation = system: cell surface sialylation; design: method as in PMID 25278018; conditions: 500 μM final concentration in culture medium; cited from earlier work
[1] = target: T1, human MNK (N-acetylmannosamine kinase) (Homo sapiens, UniProt Q9Y223); assay: MNK activity, coupled optical assay based on NADH consumption; format: biochemical; conditions: for IC50: purified human MNK, ManNAc 125 μM, ATP, means ± SEM, read-out: IC50 for MNK inhibition
T1 construct: His; made in house; host or cells: Escherichia coli BL21-CodonPlus (DE3)-RIL
T1 sequence (Q9Y223 406-722 limits assumed): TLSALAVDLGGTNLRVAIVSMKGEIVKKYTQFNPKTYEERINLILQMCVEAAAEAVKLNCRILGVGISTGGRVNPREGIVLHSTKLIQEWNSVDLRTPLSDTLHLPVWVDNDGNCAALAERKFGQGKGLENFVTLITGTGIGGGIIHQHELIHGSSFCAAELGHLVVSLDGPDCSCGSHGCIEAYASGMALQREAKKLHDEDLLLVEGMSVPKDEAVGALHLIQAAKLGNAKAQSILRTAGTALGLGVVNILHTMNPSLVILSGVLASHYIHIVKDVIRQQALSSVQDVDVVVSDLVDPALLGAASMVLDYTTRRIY
Method: N-Acetylmannosamine kinase and N-acetylglucosamine kinase expression and […]
Human N-acetylmannosamine kinase (MNK) was expressed and purified using an established method.1 Therefore, his-tagged MNK was expressed in BL21-CodonPlus (DE3)-RIL Escherichia coli (Stragene). Purification was performed by Ni-NTA affinity chromatography, and subsequently size exclusion chromatography on a SuperdexTM HighLoad 16/600 column (GE Healthcare). […]
To evaluate their purity, protein samples were mixed with SDS-PAGE sample buffer, denatured at 90 °C for 1 min and separated by a 10% SDS-PAGE gel. Proteins were visualized with Coomassie G-250 staining solution (Biorad), and PageRuler Prestained Plus (Biorad) was used as a marker (Figure S1 ).
Figure S1. SDS-PAGE of His-tagged MNK (His-MNK) and GST-tagged GNK
(GST-GNK) after affinity chromatography and size exclusion chromatography.
Apparent molecular masses given by the marker are indicated on the left side.
1 J. Martinez, L. D. Nguyen, S. Hinderlich, R. Zimmer, E. Tauberger, W. Reutter, W. Saenger, H. Fan
2 W.A. Weihofen, M. Berger, H. Chen, W. Saenger, and S. Hinderlich, J. Mol. Biol., 2006, 364, 388.
(1 picture or pasted object on this page, not shown here)
Enzyme activity and inhibition studies using N-acetylmannosamine kinase, N-acetylglucosamine kinase and yeast hexokinase
Evaluation MNK activity in presence of the compounds 11, 12, 14b, 16b and 18b The effects of compounds 11, 12, 14b, 16b, or 18b on MNK enzyme activity were evaluated using a coupled optical assay. 55 µl reaction mixture contained the following buffers and reagents: 39.5 µl buffer A (65 mM MgCl2, 200 mM Tris-HCl, pH 8.1), 5 µl ATP (50 mM), 3.5 µl NADH (30 mM), 2 µl phosphoenolpyruvate (100 mM), 2 U pyruvate-kinase, 2 U lactate-dehydrogenase, 5 µl ManNAc of varying concentrations. Subsequently, 10 µl of the compounds 11, 12, 14b, 16b and 18b were added in varying concentrations. The reaction was initiated by adding 0.6 µg MNK in 35 µL buffer B (10 mM Tris-HCl, 150 mM NaCl, pH 8.0). Samples were incubated at 37°C. Spectrophotometric measurements of NADH concentration was performed at 340 nm. Results obtained were normalized to blanks, consisting of 55 µl reaction mixture, 10 µl H 2O and 35 µl buffer B without MNK.
GNK and hexokinase inhibition assays using compound 14b
To evaluate the specificity of the inhibitor 14b towards other sugar kinases, we performed further inhibition experiments using human GNK and hexokinase (HK) from yeast (Sigma, H-5000). 39.5 µl Buffer A (see above), 5 µl ATP (50 mM), 3.5 µl NADH (30 mM), 2 µl phosphoenolpyruvate (100 mM), 2 U pyruvate-kinase, 2 U lactate-dehydrogenase, 5 µl GlcNAc (7.5 mM, for GNK experiments), or 5 µl ManNAc (7.5 mM, for GNK experiments), or glucose (5 mM, for HK experiments), and 10 µl 14b (varying concentrations) were mixed with either 1 µg GNK or 0.2 µg HK in 35 µL buffer B. The decrease of NADH was measured in a spectrophotometer […]
5 mM for HK activity, respectively (Figure S2).
Figure S2. Inhibition of GNK and HK activity by 14b. Values are means ± SEM of […]

[2] = system: UDP-GlcNAc-2-epimerase/MNK kinase; design: method as in PMID 12067740, PMID 15368395, PMID 22343627; conditions: 300 μM; cited from earlier work
Jurkat cells [3] = assay: Cell surface sialylation, 6'-sialyl-LacNAc by FITC-PSL flow cytometry; format: cell-based; conditions: 72 h
Jurkat cells [4] = conditions: human, 72 h, 100 μM
purified ManNAc kinase = system: purified ManNAc kinase; design: method as in PMID 12067740, PMID 15368395, PMID 22343627; conditions: 5 mM final concentration; cited from earlier work

Compound: CO[C@H]1[C@H](O)[C@@H](CO)OC(O)[C@@H]1NC(C)=O (stereo partly drawn) [Compound 1, 3-O-methyl-N-acetyl-glucosamine]
- reduction of incorporation rate of N-GlcNAc and N-ManNAc into glycoproteins (HepG2 cells): 70%

Compound: COC1C(O)C(CO)OC(O)C1NC(C)=O (stereo not drawn) [Compound 2]
- cell surface sialylation reduced to (cell surface sialylation): 20%

Compound: CCCC[Se]C[C@H]1OC(O)[C@@H](NC(C)=O)[C@@H](O)[C@@H]1O (stereo partly drawn) [Compound 18b]
- IC50 [1]: 1.9 mM

Compound: CC(=O)NC1C(OP(=O)(O)OP(=O)(O)OCC(C=O)OC(C=O)n2ccc(=O)[nH]c2=O)OC(CO)C(O)C1O (stereo not drawn) [Compound 7, 2′,3′-dialdehydo-UPD-N-acetylglucosamine]
- inhibition of the enzyme [2]: 93%

Compound: CC(=O)N[C@@H]1C(O)O[C@H](C[Se]C[C@H]2OC(O)[C@@H](NC(C)=O)[C@@H](O)[C@@H]2O)[C@@H](O)[C@@H]1O (stereo partly drawn) [Compound 16b]
- IC50 [1]: 3 mM

Compound: CC(=O)N[C@@H]1C(O)O[C@H](CSSC[C@H]2OC(O)[C@@H](NC(C)=O)[C@@H](O)[C@@H]2O)[C@@H](O)[C@@H]1O (stereo partly drawn) [Compound 12]
- fold higher IC50 in comparison to 14b ([1]; MNK IC50 ratio): approximately 500 fold
- IC50 [1]: 4.2 mM

Compound: CC(=O)N[C@@H]1C(O)O[C@H](CS)[C@@H](O)[C@@H]1O (stereo partly drawn) [Compound 11]
- IC50 [1]: > 10 mM

Compound: CC(=O)N[C@@H]1C(OC(C)=O)O[C@H](C[Se][Se]C[C@H]2OC(OC(C)=O)[C@@H](NC(C)=O)[C@@H](OC(C)=O)[C@@H]2OC(C)=O)[C@@H](OC(C)=O)[C@@H]1OC(C)=O (stereo partly drawn) [Compound 14a]
- reduction of 6'-sialyl-LacNAc entity (Jurkat cells [3]; 50 μM in cell culture medium): approximately 85%
- reduction of cell viability (Jurkat cells [4]): approximately 70%

Compound: CC(=O)NC1C(O)OC(COC(C)=O)C(O)C1O (stereo not drawn) [Compound 3, 6-O-Ac-ManNAc]
- inhibition of the enzyme (purified ManNAc kinase): 60%

Compound: CC(=O)N[C@@H]1C(OC(C)=O)O[C@H](C[Se]C[C@H]2OC(OC(C)=O)[C@@H](NC(C)=O)[C@@H](OC(C)=O)[C@@H]2OC(C)=O)[C@@H](OC(C)=O)[C@@H]1OC(C)=O (stereo partly drawn) [Compound 16a]
- effect on cell surface sialylation (Jurkat cells [3]; tested concentrations up to 50 μM): no visible effect; also recorded: did not alter cell surface sialylation

Reference: publication PMC6013775, “Inhibition of the key enzyme of sialic acid biosynthesis by C6-Se modified N-acetylmannosamine analogs” (Chemical Science, 2016)
